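Cultured in 96-well plates, cells were exposed to test compound for 48 hours across five concentrations. GI50: concentration for 50% inhibition of growth.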 Calls of active or inactive are those of the source. Rule as the data show it: active = GI50 up to about 1.1 µM and inactive = higher.
Legend:
Test in all cases: NCI anticancer screen, dose series, 48 h
OVCAR-5 = system: OVCAR-5
RPMI-8226 = system: RPMI-8226
SK-MEL-2 = system: SK-MEL-2
XF498 = system: XF498
OVCAR-8 = system: OVCAR-8
HT-29 = system: HT-29
SNB-78 = system: SNB-78
K562 = system: K562
NCI-H226 = system: NCI-H226
NCI-H522 = system: NCI-H522
DMS-273 = system: DMS-273
SF-268 = system: SF-268
MOLT-4 = system: MOLT-4
SF-295 = system: SF-295
CAKI-1 = system: CAKI-1
TK-10 = system: TK-10
A498 = system: A498
HOP-62 = system: HOP-62
UO-31 = system: UO-31
A549 = system: A549
SNB-75 = system: SNB-75
SK-MEL-5 = system: SK-MEL-5
UACC-62 = system: UACC-62
KM-20L2 = system: KM-20L2
ACHN = system: ACHN
CCRF-CEM = system: CCRF-CEM
UACC-257 = system: UACC-257
NCI-H460 = system: NCI-H460
SW-620 = system: SW-620
OVCAR-3 = system: OVCAR-3
HOP-92 = system: HOP-92
SF-539 = system: SF-539
SK-OV-3 = system: SK-OV-3
U-251 = system: U-251
COLO 205 = system: COLO 205
DLD-1 = system: DLD-1
HCT-15 = system: HCT-15
M14 = system: M14
NCI-H23 = system: NCI-H23
EKVX = system: EKVX
DMS-114 = system: DMS-114
LXFL 529 = system: LXFL 529
SN12C = system: SN12C
OVCAR-4 = system: OVCAR-4
HOP-18 = system: HOP-18
786-0 = system: 786-0
SNB-19 = system: SNB-19
M19-MEL = system: M19-MEL
KM12 = system: KM12
LOX IMVI = system: LOX IMVI
Malme-3M = system: Malme-3M
SK-MEL-28 = system: SK-MEL-28
HCC 2998 = system: HCC 2998
HL-60 = system: HL-60
IGROV-1 = system: IGROV-1
MCF7 = system: MCF7
HCT-116 = system: HCT-116
NCI/ADR-RES = system: NCI/ADR-RES
RXF 393 = system: RXF 393
SR = system: SR

In the case of `O=C1NC(c2ccccc2)(c2ccccc2)C(=O)N1CCCCCCN1C(=O)NC(c2ccccc2)(c2ccccc2)C1=O`, the GI50 (OVCAR-5) is reported as > 100 µM (inactive), the GI50 (RPMI-8226) is reported as > 100 µM (inactive) and the GI50 (SK-MEL-2) is reported as 15.7 µM (inactive). For the same compound, the GI50 (XF498) was 10.3 µM (inactive), the GI50 (OVCAR-8) was 22.3 µM (inactive) and the GI50 (HT-29) was 45.8 µM (inactive). For the same compound, the GI50 (SNB-78) was 33.3 µM (inactive), the GI50 (K562) was 52.8 µM (inactive) and the GI50 (NCI-H226) was > 100 µM (inactive). The GI50 (NCI-H522) was 11.9 µM (inactive), the GI50 (DMS-273) was 46 µM (inactive) and the GI50 (SF-268) was 21.5 µM (inactive). For the same compound, the GI50 (MOLT-4) was > 100 µM (inactive), the GI50 (SF-295) was 13.2 µM (inactive) and the GI50 (CAKI-1) was 48.5 µM (inactive). The GI50 (TK-10) was 25 µM (inactive), the GI50 (A498) was 25.5 µM (inactive) and the GI50 (HOP-62) was 24.8 µM (inactive). The GI50 (UO-31) was > 100 µM (inactive), the GI50 (A549) was 21.2 µM (inactive) and the GI50 (SNB-75) was 4.79 µM (inactive). For the same compound, the GI50 (SK-MEL-5) was 19.9 µM (inactive), the GI50 (UACC-62) was 57.7 µM (inactive) and the GI50 (KM-20L2) was > 100 µM (inactive). The GI50 (ACHN) was 33.3 µM (inactive), the GI50 (CCRF-CEM) was > 100 µM (inactive) and the GI50 (UACC-257) was 26.2 µM (inactive). The GI50 (NCI-H460) was > 100 µM (inactive), the GI50 (SW-620) was 69.3 µM (inactive) and the GI50 (OVCAR-3) was 83.2 µM (inactive). The GI50 (HOP-92) was 4.83 µM (inactive), the GI50 (SF-539) was 18.6 µM (inactive) and the GI50 (SK-OV-3) was 26.9 µM (inactive). The GI50 (U-251) was 27.7 µM (inactive), the GI50 (COLO 205) was > 100 µM (inactive) and the GI50 (DLD-1) was > 100 µM (inactive). For the same compound, the GI50 (HCT-15) was over 100 µM, the GI50 (M14) was 53.8 µM (inactive) and the GI50 (NCI-H23) was 18.2 µM (inactive). The GI50 (EKVX) was 39.4 µM (inactive), the GI50 (DMS-114) was 34.2 µM (inactive) and the GI50 (LXFL 529) was 25.9 µM (inactive). For the same compound, the GI50 (SN12C) was 58.1 µM (inactive), the GI50 (OVCAR-4) was 4.52 µM (inactive) and the GI50 (HOP-18) was 26.2 µM (inactive). The GI50 (786-0) was 12.6 µM (inactive), the GI50 (SNB-19) was 12.2 µM (inactive) and the GI50 (M19-MEL) was > 100 µM (inactive). For the same compound, the GI50 (KM12) was > 100 µM (inactive), the GI50 (LOX IMVI) was 62.5 µM (inactive) and the GI50 (Malme-3M) was 22.5 µM (inactive). The GI50 (SK-MEL-28) was 11 µM (inactive), the GI50 (HCC 2998) was > 100 µM (inactive) and the GI50 (HL-60) was > 100 µM (inactive). The GI50 (IGROV-1) was 74 µM (inactive).
In the case of `COc1cc[n+](C)cc1`, the GI50 (OVCAR-5) is reported as > 100 µM (inactive), the GI50 (RPMI-8226) is reported as > 100 µM (inactive) and the GI50 (SK-MEL-2) is reported as > 100 µM (inactive). The GI50 (XF498) was > 100 µM (inactive), the GI50 (OVCAR-8) was > 100 µM (inactive) and the GI50 (HT-29) was > 100 µM (inactive). For the same compound, the GI50 (SNB-78) was > 100 µM (inactive), the GI50 (MCF7) was > 100 µM (inactive) and the GI50 (K562) was > 100 µM (inactive). The GI50 (NCI-H226) was > 100 µM (inactive), the GI50 (NCI-H522) was > 100 µM (inactive) and the GI50 (DMS-273) was > 100 µM (inactive). The GI50 (SF-268) was > 100 µM (inactive), the GI50 (MOLT-4) was > 100 µM (inactive) and the GI50 (SF-295) was > 100 µM (inactive). For the same compound, the GI50 (HCT-116) was > 100 µM (inactive), the GI50 (HOP-62) was > 100 µM (inactive) and the GI50 (UO-31) was > 100 µM (inactive). For the same compound, the GI50 (A549) was > 100 µM (inactive), the GI50 (SNB-75) was > 100 µM (inactive) and the GI50 (SK-MEL-5) was > 100 µM (inactive). For the same compound, the GI50 (UACC-62) was > 100 µM (inactive), the GI50 (KM-20L2) was > 100 µM (inactive) and the GI50 (CCRF-CEM) was > 100 µM (inactive). For the same compound, the GI50 (UACC-257) was > 100 µM (inactive), the GI50 (NCI-H460) was > 100 µM (inactive) and the GI50 (SW-620) was > 100 µM (inactive). The GI50 (OVCAR-3) was > 100 µM (inactive), the GI50 (HOP-92) was > 100 µM (inactive) and the GI50 (SF-539) was > 100 µM (inactive). The GI50 (SK-OV-3) was > 100 µM (inactive), the GI50 (U-251) was > 100 µM (inactive) and the GI50 (COLO 205) was > 100 µM (inactive). The GI50 (DLD-1) was > 100 µM (inactive), the GI50 (HCT-15) was over 100 µM and the GI50 (NCI-H23) was > 100 µM (inactive). For the same compound, the GI50 (EKVX) was > 100 µM (inactive), the GI50 (NCI/ADR-RES) was > 100 µM (inactive) and the GI50 (DMS-114) was > 100 µM (inactive). The GI50 (SN12C) was > 100 µM (inactive), the GI50 (OVCAR-4) was > 100 µM (inactive) and the GI50 (HOP-18) was > 100 µM (inactive). The GI50 (SNB-19) was > 100 µM (inactive), the GI50 (M19-MEL) was > 100 µM (inactive) and the GI50 (KM12) was > 100 µM (inactive). For the same compound, the GI50 (LOX IMVI) was > 100 µM (inactive), the GI50 (Malme-3M) was > 100 µM (inactive) and the GI50 (SK-MEL-28) was > 100 µM (inactive). For the same compound, the GI50 (RXF 393) was > 100 µM (inactive), the GI50 (HCC 2998) was > 100 µM (inactive) and the GI50 (HL-60) was > 100 µM (inactive). The GI50 (IGROV-1) was > 100 µM (inactive).
`CCN1CCC(O)(c2ccc(Cl)cc2)C(C(=O)c2ccc(Cl)cc2)C1` (centres undefined) was tested, and the GI50 (OVCAR-5) was > 100 µM (inactive), the GI50 (RPMI-8226) was 24.4 µM (inactive) and the GI50 (SK-MEL-2) was > 100 µM (inactive). For the same compound, the GI50 (XF498) was > 100 µM (inactive), the GI50 (OVCAR-8) was > 100 µM (inactive) and the GI50 (HT-29) was > 100 µM (inactive). The GI50 (SNB-78) was > 100 µM (inactive), the GI50 (K562) was > 100 µM (inactive) and the GI50 (NCI-H522) was 20.4 µM (inactive). The GI50 (DMS-273) was > 100 µM (inactive), the GI50 (SR) was 36.6 µM (inactive) and the GI50 (SF-268) was > 100 µM (inactive). The GI50 (MOLT-4) was > 100 µM (inactive), the GI50 (SF-295) was > 100 µM (inactive) and the GI50 (HCT-116) was > 100 µM (inactive). The GI50 (TK-10) was > 100 µM (inactive), the GI50 (A498) was > 100 µM (inactive) and the GI50 (UO-31) was 35.2 µM (inactive). The GI50 (A549) was > 100 µM (inactive), the GI50 (SNB-75) was 42 µM (inactive) and the GI50 (SK-MEL-5) was > 100 µM (inactive). For the same compound, the GI50 (UACC-62) was > 100 µM (inactive), the GI50 (KM-20L2) was > 100 µM (inactive) and the GI50 (ACHN) was > 100 µM (inactive). For the same compound, the GI50 (CCRF-CEM) was 49.5 µM (inactive), the GI50 (UACC-257) was > 100 µM (inactive) and the GI50 (NCI-H460) was > 100 µM (inactive). For the same compound, the GI50 (SW-620) was 70.3 µM (inactive), the GI50 (OVCAR-3) was > 100 µM (inactive) and the GI50 (HOP-92) was > 100 µM (inactive). The GI50 (SF-539) was 26.2 µM (inactive), the GI50 (SK-OV-3) was > 100 µM (inactive) and the GI50 (U-251) was > 100 µM (inactive). The GI50 (COLO 205) was > 100 µM (inactive), the GI50 (DLD-1) was > 100 µM (inactive) and the GI50 (M14) was > 100 µM (inactive). The GI50 (NCI-H23) was > 100 µM (inactive), the GI50 (EKVX) was > 100 µM (inactive) and the GI50 (LXFL 529) was > 100 µM (inactive). For the same compound, the GI50 (SN12C) was > 100 µM (inactive), the GI50 (OVCAR-4) was > 100 µM (inactive) and the GI50 (HOP-18) was 22.6 µM (inactive). The GI50 (786-0) was > 100 µM (inactive), the GI50 (SNB-19) was > 100 µM (inactive) and the GI50 (M19-MEL) was > 100 µM (inactive). For the same compound, the GI50 (KM12) was > 100 µM (inactive), the GI50 (LOX IMVI) was > 100 µM (inactive) and the GI50 (SK-MEL-28) was > 100 µM (inactive). The GI50 (RXF 393) was > 100 µM (inactive), the GI50 (HCC 2998) was > 100 µM (inactive) and the GI50 (HL-60) was > 100 µM (inactive). For the same compound, the GI50 (IGROV-1) was > 100 µM (inactive).

— ChEMBL document CHEMBL1201862, “PubChem BioAssay data set” (2004)
